Columns and labels:
GSK 3α = GSK 3α (Homo sapiens (Human), UniProt P49840); experiment: GSK 3α enzyme inhibition (FRET, Z-LYTE; Method 2); assay type: biochemical; conditions: read-out: IC50 Values for Enzyme Inhibition GSK3α
Protocol: (§1) The enzyme inhibitory activities of compounds disclosed herein are determined by FRET using synthetic peptides labelled with both donor and acceptor fluorophores (Z-LYTE, Invitrogen Ltd., Paisley, UK).
The inhibitory activities of compounds of the invention against the GSK 3α enzyme isoform (Invitrogen), are evaluated by determining the level of activation I phosphorylation of the target peptide. The GSK3-α protein (500 ng/mL, 2.5 μL) is mixed with the test compound (2.5 μL at either 4 μg/mL, 0.4 μg/mL, 0.04 μg/mL, or 0.004 μg/mL) for 2 hr at RT. The FRET peptide (8 μM, 2.5 μL), which is a phosphorylation target for GSK3α, and ATP (40 μM, 2.5 μL) are then added to the enzyme\compound mixture and the resulting mixture incubated for 1 hr. Development reagent (protease, 5 μL) is added for 1 hr prior to detection in a fluorescence microplate reader (Varioskan® Flash, ThermoFisher Scientific).
(§2) In all cases, the site-specific protease cleaves non-phosphorylated peptide only and eliminates the FRET signal. Phosphorylation levels of each reaction are calculated using the ratio of coumarin emission (donor) over fluorescein emission (acceptor), for which high ratios indicate high phosphorylation and low ratios indicate low phosphorylation levels.
This method follows the same steps as Method 1 above, but utilises a shorter period of mixing of the test compound (105 minutes instead of 2 hours) with the GSK3-α protein. In addition, the concentrations of test compound employed are either 10 μg/mL, 1 μg/mL, 0.1 μg/mL, or 0.01 μg/mL

[1] = tested on: β-catenin in d-U937 cells; experiment: Accumulation of β catenin in d-U937 cells (assay m); assay type: cell-based, human
Protocol: U937 cells, a human monocytic cell line, are differentiated into macrophage-type cells by incubation with PMA (100 ng/mL) for between 48 to 72 hr. The cells are then incubated with either final concentrations of test compound or vehicle for 18 hr. The induction of β-catenin by the test compounds is stopped by replacing the media with 4% formaldehyde solution. Endogenous […] is neutralised by incubating with quenching buffer (100 μL, 0.1% sodium azide, 1% H2O2 in PBS with 0.05% Tween-20) for 20 min. The cells are washed with washing buffer (200 μL; PBS containing 0.05% Tween-20) and incubated with blocking solution (200 μL; 5% milk in PBS) for 1 hr, re-washed with washing buffer (200 μL) and then incubated overnight with anti-β-catenin antibody solution (50 μL) in 1% BSA/PBS (BD, Oxford, UK).
After washing with washing buffer (3×200 μL; PBS containing 0.05% Tween-20), cells are incubated with a HRP-conjugated secondary antibody solution (100 μL) in 1% BSA/PBS (Dako, Cambridge, UK) and the resultant signal is determined colourimetrically (OD: 450 nm with a reference wavelength of 655 nm) using TMB substrate (50 μL; R&D Systems, Abingdon, UK). This reaction is stopped by addition of 1N H2SO4 solution (50 μL). Cells are then washed with washing buffer and 2% crystal violet solution (50 μL) is applied for 30 min. After washing with washing buffer (3×200 μL), 1% SDS (100 μL) is added to each well and the plates are shaken lightly for 1 hr prior to measuring the absorbance at 595 nm (Varioskan® Flash, Thermo-Fisher Scientific).
The measured OD450-655 readings are corrected for cell number by dividing the OD450-655 by the OD595 readings.

c-Src = c-Src (Homo sapiens (Human), UniProt P12931); experiment: c-Src enzyme inhibition (FRET, Z-LYTE); assay type: biochemical
Chain of c-Src (P12931 whole entry, looked up): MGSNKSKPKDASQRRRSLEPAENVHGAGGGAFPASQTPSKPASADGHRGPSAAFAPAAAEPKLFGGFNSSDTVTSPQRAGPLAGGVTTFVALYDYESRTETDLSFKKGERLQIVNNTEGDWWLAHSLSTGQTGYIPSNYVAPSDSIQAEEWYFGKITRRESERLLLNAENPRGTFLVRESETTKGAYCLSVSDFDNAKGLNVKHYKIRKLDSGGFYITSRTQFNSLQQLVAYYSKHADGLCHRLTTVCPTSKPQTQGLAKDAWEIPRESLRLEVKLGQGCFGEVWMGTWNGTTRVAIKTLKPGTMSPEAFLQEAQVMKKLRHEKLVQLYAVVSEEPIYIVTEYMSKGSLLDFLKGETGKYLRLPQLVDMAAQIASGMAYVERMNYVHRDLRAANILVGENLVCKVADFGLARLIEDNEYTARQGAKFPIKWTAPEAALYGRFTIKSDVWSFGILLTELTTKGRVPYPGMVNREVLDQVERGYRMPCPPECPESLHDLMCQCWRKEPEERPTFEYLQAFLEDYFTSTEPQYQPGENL
Protocol: as §1
(§3) The relevant enzyme (3000 ng/mL or 2000 ng/mL respectively, 2.5 μL) is incubated with the test compound (either 1 μg/mL, 0.1 μg/mL, 0.01 μg/mL, or 0.001 μg/mL, 2.5 μL each) for 2 hr at RT. The FRET peptides (8 μM, 2.5 μL), and appropriate ATP solutions (2.5 μL, 800 μM for c-Src, and 60 μM ATP for Syk) are then added to the enzymes/compound mixtures and the mixture incubated for 1 hr. Development reagent (protease, 5 μL) is added for 1 hr prior to detection in a fluorescence microplate reader (Varioskan® Flash, ThermoFisher Scientific).
as §2

Syk = Syk (Homo sapiens (Human), UniProt P43405); experiment: Syk enzyme inhibition (FRET, Z-LYTE); assay type: biochemical
Protocol: as §1, §3, §2

Chain of GSK 3α (P49840 whole entry): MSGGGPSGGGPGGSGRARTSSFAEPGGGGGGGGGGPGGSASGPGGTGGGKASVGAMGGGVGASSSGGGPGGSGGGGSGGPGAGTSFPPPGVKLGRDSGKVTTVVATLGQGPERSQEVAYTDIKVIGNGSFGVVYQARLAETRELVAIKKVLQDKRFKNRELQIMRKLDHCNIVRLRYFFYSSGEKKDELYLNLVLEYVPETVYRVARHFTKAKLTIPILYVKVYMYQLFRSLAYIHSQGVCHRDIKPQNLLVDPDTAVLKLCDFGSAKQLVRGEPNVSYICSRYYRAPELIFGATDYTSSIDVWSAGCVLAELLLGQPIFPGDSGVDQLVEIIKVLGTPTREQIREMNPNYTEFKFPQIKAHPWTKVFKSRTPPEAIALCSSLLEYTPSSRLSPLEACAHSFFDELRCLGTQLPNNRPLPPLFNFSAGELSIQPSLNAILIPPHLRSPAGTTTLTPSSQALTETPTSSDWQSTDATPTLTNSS

Compound | IC50 (GSK 3α) [nM] | % β-catenin induction ([1]; test compound 1 μg/mL) [%] | % β-catenin induction ([1]; test compound 5 μg/mL) [%] | % β-catenin induction ([1]; test compound 10 μg/mL) [%] | IC50 (c-Src) [nM] | IC50 (Syk) [nM]
COCCOCCOCCOc1cc(Nc2nccc(Oc3ccc(NC(=O)Nc4cc(C(C)(C)C)cc(C(=O)NCC(=O)OC)c4OC)c4ccccc34)n2)cc(OC)c1 [Example 37, Methyl 2-(5-(tert-butyl)-2-methoxy-3-(3-(4-((2-((3-methoxy-5-(2-(2-(2-methoxyethoxy)-ethoxy)ethoxy)phenyl)amino)pyrimidin-4-yl)oxy)naphthalen-1-yl)ureido)benzamido)-acetate] | 1520 | 4 | 38 | 46 | 12 | 43
COc1cc(Nc2nccc(Oc3ccc(NC(=O)Nc4cc(C(C)(C)C)cc(NS(C)(=O)=O)c4OC)c4ccccc34)n2)cc(OCCOCCOCCN(C)C)c1 [Example 15, N-(5-(tert-Butyl)-3-(3-(4-((2-((3-(2-(2-(2-(dimethylamino)ethoxy)ethoxy)ethoxy)-5-methoxyphenyl)amino)pyrimidin-4-yl)oxy)naphthalen-1-yl)ureido)-2-methoxyphenyl)-methanesulfonamide] | 905 | −2 | −6 | −17 | – | 237
C#Cc1cc(Nc2nccc(Oc3ccc(NC(=O)Nc4cc(C(C)(C)C)cc(C(=O)NC)c4OC)c4ccccc34)n2)cc(C(=O)NCCN2CCOCC2)c1 [Example 9] | 1630 | 32 | 48 | 67 | 8 | 27
COCCOCCOCCOc1cc(Nc2nccc(Oc3ccc(NC(=O)Nc4cc(C(C)(C)C)cc(C(=O)NC5CC5)c4OC)c4ccccc34)n2)cc(OC)c1 [Example 33, 5-(tert-Butyl)-N-cyclopropyl-2-methoxy-3-(3-(4-((2-((3-methoxy-5-(2-(2-(2-methoxy-ethoxy)ethoxy)ethoxy)phenyl)amino)pyrimidin-4-yl)oxy)naphthalen-1-yl)ureido)-benzamide] | 828 | – | – | – | 11 | 28
CNC(=O)c1cc(NC(=O)Nc2ccc(Oc3ccnc(Nc4cc(OC)cc(OCCOCCOCCOC)c4)n3)c3ccccc23)cc(C(C)(C)C)c1 [Example 23, 3-(tert-Butyl)-5-(3-(4-((2-((3-methoxy-5-(2-(2-(2-methoxyethoxy)ethoxy)ethoxy)phenyl)-amino)pyrimidin-4-yl)oxy)naphthalen-1-yl)ureido)-N-methylbenzamide] | 733 | −4 | 10 | 9 | – | 147

The next lines start with results.

IC50 (GSK 3α) [nM] | Compound | % β-catenin induction ([1]; test compound 1 μg/mL) [%] | % β-catenin induction ([1]; test compound 5 μg/mL) [%] | % β-catenin induction ([1]; test compound 10 μg/mL) [%] | IC50 (c-Src) [nM] | IC50 (Syk) [nM]
738 | COc1cc(Nc2nccc(Oc3ccc(NC(=O)Nc4cc(C(C)(C)C)cc(NS(C)(=O)=O)c4OC)c4ccccc34)n2)cc(OCCOCCOCCO)c1 [83(c), N-(5-(tert-butyl)-3-(3-(4-((2-((3-(2-(2-(2-hydroxyethoxy)ethoxy)ethoxy)-5-methoxyphenyl)-amino)pyrimidin-4-yl)oxy)naphthalen-1-yl)ureido)-2-methoxyphenyl)methanesulfonamide] | 4 | 31 | 33 | – | –
2630 | COCCOCCOCCS(=O)(=O)c1cc(Nc2cc(Oc3ccc(NC(=O)Nc4cc(C(C)(C)C)cc(NS(C)(=O)=O)c4OC)c4ccccc34)ccn2)cc(OC)c1 [Example 85(y), 1-[5-tert-Butyl-3-(methanesulfonamido)-2-methoxyphenyl]-3-[4-[2-[3-methoxy-5-[2-[2-(2-methoxyethoxy)ethoxy]ethylsulfonyl]anilino]pyridin-4-yl]oxy-1-naphthyl]urea] | – | – | – | 206 | 1160
